From patent US20070082939A1, “Methods and compositions for the treatment of neuropathies and related disorders” (priority 2005, published 2007)
Entries after “also recorded” stand apart in the source; their conditions may differ. Where a name gives a salt, the structure may show the parent alone.

Legend:
[1] = system: nociceptive pain following dental surgery; conditions: humans; cited from earlier work
[2] = system: spinal nerve ligation (Chung) model of neuropathic pain; assay: Spinal nerve ligation (Chung) model, tactile stimulation with electronic Von Frey probe; type: in vivo, rats; conditions: for effect on mechanical hyperalgesia compared with morphine / mechanical hyperalgesia: force required to induce paw withdrawal, lesioned paw: lesioned paw; for effect on mechanical hyperalgesia compared with morphine: morphine 128 mg/kg p.o., near lethal dose; for mechanical hyperalgesia: force required to induce paw withdrawal, lesioned paw / pain (pressure) threshold in the non-lesioned paw: rats; for mechanical hyperalgesia: force required to induce paw withdrawal, lesioned paw: p.o. at the indicated doses 60 minutes before the test; for pain (pressure) threshold in the non-lesioned paw: p.o., non-lesioned paw (Panel B)
Procedure: (§1) Tight ligature of spinal nerves in rats is associated with hyperalgesia, allodynia and spontaneous pain, and thereby provides an accepted model for peripheral neuropathic pain in humans. Male Sprague-Dawley rats Rj:SD (IOPS Han) weighing 218-260 g at the beginning of the procedure were anesthetized (sodium pentobarbital 40 mg/kg i.p.) and an incision at the L4-S2 level was performed to expose the left L5 and L6 spinal nerves, which were then tightly ligated (4-0 silk suture) distal to the dorsal root ganglion and prior to entrance into the sciatic nerve, as first described by Kim and Chung (Pain 50:355-363, 1992). The wound was then sutured, and the rats received an […]. injection of clamoxyl (100 mg/kg […].) and were allowed to recover. 4 weeks after surgery, when the chronic pain state was fully installed, rats were submitted consecutively to tactile and thermal stimulation of both the non-lesioned and the lesioned hindpaws.
For tactile stimulation, the animal was placed under an inverted acrylic plastic box (18×11.5×13 cm) on a grid floor. The tip of an electronic Von Frey probe (Bioseb, model 1610) was then applied with increasing force to the non-lesioned and lesioned hindpaws and the force inducing paw-withdrawal was automatically recorded. This procedure was carried out 3 times and the mean force per paw was calculated.
(§2) Behavioral testing was carried out 2 weeks after surgery. Prior to receiving drug treatment all animals were submitted to tactile stimulation and assigned to treatment groups matched on the basis of their pain response. 8 rats were studied per group, and the tests were performed blind.
(§3) Bicifadine was evaluated at the indicated doses, administered p.o. 60 minutes before the test, and compared with a vehicle control group. Morphine (128 mg/kg p.o.), used as a reference substance, was administered under the same experimental conditions.
(§4) Data were analyzed by comparing the responses of lesioned paws in the treatment groups with vehicle control group using paired and unpaired Student's t tests.
(§5) In the instant example, another exemplary, substituted 1-aryl-3-azabicyclo[3.1.0]hexane was evaluated for its ability to alleviate symptoms associated with neuropathy in the spinal nerve ligation (Chung) model of neuropathic pain. In this study, a multiply aryl-subsituted compound as described above, 1-(3,4-dichlorophenyl)-3-azabicyclo[3.1.0]hexane was assayed according to the procedures described above in Example 1. The 1-(3,4-dichlorophenyl)-3-azabicyclo[3.1.0]hexane was administered to test animals at the indicated doses p.o. 60 minutes before the test, and compared with a vehicle control group. Data were analyzed by comparing the responses of lesioned paws in the treatment groups with vehicle control group using paired and unpaired Student's t tests, as described in Example 1.

[3] = system: acute inflammatory pain produced by injection of yeast extract into the rat paw; conditions: cited from earlier work
[4] = system: spinal nerve ligation (Chung) model of neuropathic pain; assay: Spinal nerve ligation (Chung) model, thermal stimulation (infrared radiant source); type: in vivo, rats; conditions: for effect on thermal hyperalgesia compared with morphine / thermal hyperalgesia: paw withdrawal latency, lesioned paw: lesioned paw; for effect on thermal hyperalgesia compared with morphine: morphine 128 mg/kg PO, nearly lethal dose; for thermal hyperalgesia: paw withdrawal latency, lesioned paw / response to application of heat in the non-lesioned paw: rats; for thermal hyperalgesia: paw withdrawal latency, lesioned paw: p.o. at the indicated doses 60 minutes before the test; for response to application of heat in the non-lesioned paw: p.o., non-lesioned paw (Panel B)
Procedure: as §1
For thermal stimulation, the apparatus (Model 7200, Ugo Basile, Italy) consists of individual acrylic plastic boxes (17×11×13 cm) placed upon an elevated glass floor. A rat was placed in the box and left free to habituate for 10 minutes. A mobile infrared radiant source (96±10 mW/cm^2) was then focused under the non-lesioned and lesioned hindpaws and the paw-withdrawal latency was automatically recorded. In order to prevent tissue damage the heat source was automatically turned off after 45 seconds.
as §2, §3, §4, §5

[5] = system: Streptozotocin (STZ)-induced diabetes rat model of neuropathy; assay: Streptozotocin (STZ)-induced diabetes rat model, paw pressure test; type: in vivo, rats; conditions: 60 minutes after dosing; for mechanical hyperalgesia: nociceptive threshold (paw pressure): STZ diabetic rats, oral, vs vehicle-treated diabetic rats, hydrochloride
Procedure: Male Sprague Dawley rats Rj:SD (IOPS Han) weighing 218-260 g at the beginning of the experiment, were included in this study for the induction of diabetes. These were divided into vehicle control and streptozotocin treated groups. The rats were housed in a temperature (19.5-24.5° C.) and relative humidity (45-65%) controlled room with a 12-h light/dark cycle, with ad libitum access to filtered tap water and standard pelleted laboratory chow throughout the study.
On day 0, diabetes was induced by intraperitoneal injection of streptozotocin (STZ; 75 mg/kg) to the rats. On day 23, to confirm the presence of diabetes in the STZ-administered rats, hyperglycemia was measured using blood glucose strips. Animals with a blood sugar level lower than […] were not used in further investigations.
Animals found useful for inclusion in additional investigations were dosed orally with bicifadine at the indicated doses, and the nociceptive threshold tested sixty minutes later. The nociceptive threshold was evaluated using a mechanical nociceptive stimulus (paw pressure test). An increasing pressure was applied onto the hindpaw of the animal until the nociceptive response (vocalization or paw withdrawal) was reached. The pain threshold (grams of contact pressure) was measured in both hindpaws.
Results are expressed as the nociceptive threshold (mean±SEM) in grams of contact pressure for each group, calculated from individual nociceptive thresholds (mean values of the nociceptive thresholds obtained for both hindpaws). Statistical significance between the bicifadine treated groups and the vehicle-treated diabetic group was determined by a […], using the residual variance after a one-way analysis of variance (P<0.05).

[6] = listed as Bicfifadine, hydrochloride
[7] = vs vehicle, listed as bicifadine HCl, hydrochloride
[8] = morphine 128 mg/kg p.o. (nearly lethal dose), vs vehicle

Cc1ccc([C@]23CNC[C@H]2C3)cc1 (racemic) [bicifadine, (±)-1-(4-methylphenyl)-3-azabicyclo[3.1.0]hexane hydrochloride]
relief of pain following dental surgery compared with codeine and tramadol [1]: as effective as codeine and tramadol | force required to induce paw withdrawal, lesioned paw ([2]; 50 mg/kg PO, 60 minutes before the test, vs vehicle treated lesioned paws): significant increase | effect on mechanical hyperalgesia compared with morphine ([2]; hydrochloride): more potent than morphine | effect on mechanical hyperalgesia compared with morphine [2, 6]: as effective as a near lethal dose morphine | mechanical hyperalgesia: force required to induce paw withdrawal, lesioned paw ([2]; vs vehicle, hydrochloride): statistically significant increase; also recorded: effectively suppressed | mechanical hyperalgesia: force required to induce paw withdrawal, lesioned paw [2, 7]: suppresses mechanical hyperalgesia | pain (pressure) threshold in the non-lesioned paw ([2]; hydrochloride): does not affect; also recorded: no effect | activity in the Randall-Selitto test [3]: potent and active | paw withdrawal latency in response to a thermal stimulus, lesioned paw ([4]; all doses tested (12.5-100 mg/kg PO), vs vehicle): significant increase | effect on thermal hyperalgesia compared with morphine ([4]; hydrochloride): approximately equivalent | effect on thermal hyperalgesia compared with morphine [4, 6]: as effective as a near lethal dose morphine | thermal hyperalgesia: paw withdrawal latency, lesioned paw ([4]; vs vehicle, hydrochloride): effectively suppressed | thermal hyperalgesia: paw withdrawal latency, lesioned paw [4, 7]: suppresses thermal hyperalgesia | response to application of heat in the non-lesioned paw ([4]; hydrochloride): does not affect; also recorded: no effect | nociceptive threshold (paw pressure) ([5]; 12.5 and 25 mg/kg oral, vs vehicle treated diabetic animals): significant (P<0.05) increase | mechanical hyperalgesia: nociceptive threshold (paw pressure) [5]: reduces mechanical hyperalgesia; also recorded: effectively alleviates neuropathy symptoms (mechanical hyperalgesia) | mechanical hyperalgesia: nociceptive threshold (paw pressure) ([5]; listed as Bicifadine): increased the amount of pressure an animal could withstand; also recorded: restore the amount of pressure tolerated in these diabetic rats to values approaching those obtained in control animals

Clc1ccc(C23CNCC2C3)cc1Cl (centres unmarked) [1-(3,4-dichlorophenyl)-3-azabicyclo[3.1.0]hexane]
mechanical hyperalgesia: force required to induce paw withdrawal, lesioned paw ([2]; vs vehicle): potently suppressed tactile allodynia; also recorded: significant increase in the force required to induce paw withdrawal; also recorded: suppresses mechanical hyperalgesia | pain (pressure) threshold in the non-lesioned paw [2]: not due to debilitation of the animal; also recorded: no effect | thermal hyperalgesia: paw withdrawal latency, lesioned paw ([4]; vs vehicle): dose-dependently suppressed thermal hyperalgesia; also recorded: significant increase in paw withdrawal latency; also recorded: suppresses thermal hyperalgesia | response to application of heat in the non-lesioned paw [4]: not due to debilitation of the animal; also recorded: no effect

CC(=O)Oc1ccccc1C(=O)O [aspirin]
activity in the Randall-Selitto test [3]: active

COc1ccc2c3c1O[C@H]1[C@@H](O)C=C[C@H]4[C@@H](C2)N(C)CC[C@@]341 [codeine]
activity in the Randall-Selitto test [3]: active

CN1CC[C@]23c4c5ccc(O)c4O[C@H]2[C@@H](O)C=C[C@H]3[C@H]1C5 [morphine, reference compound]
threshold for nociceptive response, mechanical pressure, lesioned paw [2, 8]: significant increase | activity in the Randall-Selitto test [3]: active | threshold for nociceptive response, thermal stimulus, lesioned paw [4, 8]: significant increase
